How the values were obtained:
[1] = target: T1, Cholinesterases; ACHE & BCHE (Homo sapiens) (UniProt P06276+P22303); assay: Selectivity index, ratio of IC50 for recombinant human serum BChE to IC50 for recombinant human serum AChE; type: protein assay
Acetylcholinesterase [2] = target: T2, Acetylcholinesterase (Homo sapiens, UniProt P22303); assay: Inhibition of recombinant human serum AChE using acetylthiocholine iodide as substrate preincubated for 20 mins followed by substrate addition by Ellman's method
T2 sequence (P22303 whole entry): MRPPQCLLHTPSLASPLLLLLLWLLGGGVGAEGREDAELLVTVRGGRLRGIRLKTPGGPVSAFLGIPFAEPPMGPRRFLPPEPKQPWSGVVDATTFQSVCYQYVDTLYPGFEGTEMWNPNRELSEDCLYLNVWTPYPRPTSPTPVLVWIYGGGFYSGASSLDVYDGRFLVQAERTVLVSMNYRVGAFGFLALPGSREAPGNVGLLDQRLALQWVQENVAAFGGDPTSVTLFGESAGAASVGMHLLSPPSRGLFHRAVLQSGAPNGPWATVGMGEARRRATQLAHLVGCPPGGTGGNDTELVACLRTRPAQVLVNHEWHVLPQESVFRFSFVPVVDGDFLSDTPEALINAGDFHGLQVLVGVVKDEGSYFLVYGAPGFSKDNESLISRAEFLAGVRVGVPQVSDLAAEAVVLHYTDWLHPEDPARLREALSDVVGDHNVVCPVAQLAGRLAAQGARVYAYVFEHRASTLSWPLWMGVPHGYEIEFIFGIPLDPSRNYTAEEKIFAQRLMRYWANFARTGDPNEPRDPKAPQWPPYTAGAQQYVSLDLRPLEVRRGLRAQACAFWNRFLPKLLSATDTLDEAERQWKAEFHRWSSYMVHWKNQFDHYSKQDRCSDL

Cholinesterase [3] = target: T3, Cholinesterase (Homo sapiens, UniProt P06276); assay: Inhibition of recombinant human serum BChE using acetylthiocholine iodide as substrate preincubated for 20 mins followed by substrate addition by Ellman's method
T3 sequence (P06276 whole entry): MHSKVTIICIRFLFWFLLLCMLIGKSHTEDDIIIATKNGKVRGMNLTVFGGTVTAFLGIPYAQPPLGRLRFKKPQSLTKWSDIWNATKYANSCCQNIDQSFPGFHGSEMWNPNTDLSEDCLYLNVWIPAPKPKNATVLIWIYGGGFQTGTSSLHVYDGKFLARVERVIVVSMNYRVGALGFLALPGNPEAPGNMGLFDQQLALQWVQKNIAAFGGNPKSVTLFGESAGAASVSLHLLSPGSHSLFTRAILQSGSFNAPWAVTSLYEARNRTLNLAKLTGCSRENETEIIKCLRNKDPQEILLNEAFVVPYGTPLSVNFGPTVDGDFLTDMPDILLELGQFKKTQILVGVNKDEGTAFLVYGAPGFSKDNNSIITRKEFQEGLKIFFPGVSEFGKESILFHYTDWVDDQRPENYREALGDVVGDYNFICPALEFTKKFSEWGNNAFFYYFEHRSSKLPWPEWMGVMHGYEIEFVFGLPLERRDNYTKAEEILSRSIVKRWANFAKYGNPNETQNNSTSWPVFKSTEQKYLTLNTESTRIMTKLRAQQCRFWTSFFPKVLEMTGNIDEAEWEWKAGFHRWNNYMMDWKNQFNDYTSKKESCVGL

Acetylcholinesterase [4] = target: T2, Acetylcholinesterase; assay: Inhibition of human erythrocyte AChE using acetylthiocholine iodide as substrate preincubated for 6 mins followed by substrate addition measured upto 180 secs by Ellman's method
[5] = target: T4, Amine oxidase [flavin-containing] B (Homo sapiens, UniProt P27338); assay: Inhibition of recombinant human MAO-B using p-tyramine as substrate preincubated for 15 mins followed by substrate addition measured upto 20 mins by Amplex red assay
T4 sequence (P27338 whole entry): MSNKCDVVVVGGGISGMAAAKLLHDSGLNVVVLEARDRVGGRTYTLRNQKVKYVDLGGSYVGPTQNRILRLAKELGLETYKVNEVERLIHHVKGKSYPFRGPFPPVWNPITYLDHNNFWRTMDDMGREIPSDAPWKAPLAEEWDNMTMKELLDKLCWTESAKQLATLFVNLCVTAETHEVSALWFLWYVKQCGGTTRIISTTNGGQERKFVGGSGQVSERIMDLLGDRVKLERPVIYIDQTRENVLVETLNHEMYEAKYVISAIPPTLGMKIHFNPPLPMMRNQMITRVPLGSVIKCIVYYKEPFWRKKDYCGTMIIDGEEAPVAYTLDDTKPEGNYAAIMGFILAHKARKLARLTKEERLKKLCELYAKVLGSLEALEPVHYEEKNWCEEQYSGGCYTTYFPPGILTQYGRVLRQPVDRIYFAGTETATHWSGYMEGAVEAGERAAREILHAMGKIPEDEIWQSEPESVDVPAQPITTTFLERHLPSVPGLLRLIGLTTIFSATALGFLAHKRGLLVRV

Acetylcholinesterase [6] = target: T2, Acetylcholinesterase; assay: Binding affinity to AChE (unknown origin) assessed as inhibition constant preincubated for 60 mins followed by substrate addition measured after 60 mins by colorimetric method
Beta-secretase 1 = Beta-secretase 1 (Homo sapiens, UniProt P56817); assay: Inhibition of BACE1 (unknown origin) using A-beta-PP as substrate by fluorescence based assay
Beta-secretase 1, sequence (P56817 whole entry): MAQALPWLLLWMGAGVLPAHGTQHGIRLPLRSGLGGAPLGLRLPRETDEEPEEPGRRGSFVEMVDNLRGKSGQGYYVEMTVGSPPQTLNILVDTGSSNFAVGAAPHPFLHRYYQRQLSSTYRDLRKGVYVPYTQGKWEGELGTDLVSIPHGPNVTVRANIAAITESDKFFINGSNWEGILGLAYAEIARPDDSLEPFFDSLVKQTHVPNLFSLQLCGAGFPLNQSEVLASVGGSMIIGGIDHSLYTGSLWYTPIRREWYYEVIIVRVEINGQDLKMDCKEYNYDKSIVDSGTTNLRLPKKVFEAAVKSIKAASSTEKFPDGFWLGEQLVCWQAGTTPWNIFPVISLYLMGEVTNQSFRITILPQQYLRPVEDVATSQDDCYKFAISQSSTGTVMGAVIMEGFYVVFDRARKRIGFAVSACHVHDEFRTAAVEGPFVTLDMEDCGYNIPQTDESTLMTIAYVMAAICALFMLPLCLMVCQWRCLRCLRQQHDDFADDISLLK

[7] = target: T1, Cholinesterases; ACHE & BCHE (Homo sapiens); assay: Selectivity index, ratio of IC50 for human plasma BChE to IC50 for human erythrocyte AChE; type: protein assay
Acetylcholinesterase [8] = target: T2, Acetylcholinesterase; assay: Inhibition of human erythrocyte AChE using acetyl-(beta-methyl)thiocholine as substrate by Ellman's method
Cholinesterase [9] = target: T3, Cholinesterase; assay: Inhibition of human plasma BChE using S-butyrylthiocholine as substrate by Ellman's method
Cholinesterase [10] = target: Cholinesterase (Equus caballus, UniProt P81908); assay: Inhibition of equine BChE
Cholinesterase (Equus caballus, UniProt P81908), sequence (P81908 whole entry): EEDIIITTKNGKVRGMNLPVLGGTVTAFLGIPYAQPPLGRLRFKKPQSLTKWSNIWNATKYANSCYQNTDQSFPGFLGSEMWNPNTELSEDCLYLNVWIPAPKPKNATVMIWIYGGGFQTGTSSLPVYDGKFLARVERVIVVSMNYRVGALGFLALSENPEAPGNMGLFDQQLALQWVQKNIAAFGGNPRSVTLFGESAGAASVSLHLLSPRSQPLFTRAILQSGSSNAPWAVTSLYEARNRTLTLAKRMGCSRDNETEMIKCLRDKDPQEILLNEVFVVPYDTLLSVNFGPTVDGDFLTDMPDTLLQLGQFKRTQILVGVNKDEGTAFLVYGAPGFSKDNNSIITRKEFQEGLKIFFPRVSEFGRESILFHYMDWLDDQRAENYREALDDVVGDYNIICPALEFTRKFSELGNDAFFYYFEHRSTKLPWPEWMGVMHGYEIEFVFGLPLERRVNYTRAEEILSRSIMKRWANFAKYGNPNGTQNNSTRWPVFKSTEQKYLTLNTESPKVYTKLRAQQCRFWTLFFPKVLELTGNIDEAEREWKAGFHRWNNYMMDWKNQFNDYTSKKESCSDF

[11] = target: High affinity cGMP-specific 3',5'-cyclic phosphodiesterase 9A (Homo sapiens, UniProt O76083); assay: Inhibition of PDE9A (unknown origin)
High affinity cGMP-specific 3',5'-cyclic phosphodiesterase 9A, sequence (O76083 whole entry): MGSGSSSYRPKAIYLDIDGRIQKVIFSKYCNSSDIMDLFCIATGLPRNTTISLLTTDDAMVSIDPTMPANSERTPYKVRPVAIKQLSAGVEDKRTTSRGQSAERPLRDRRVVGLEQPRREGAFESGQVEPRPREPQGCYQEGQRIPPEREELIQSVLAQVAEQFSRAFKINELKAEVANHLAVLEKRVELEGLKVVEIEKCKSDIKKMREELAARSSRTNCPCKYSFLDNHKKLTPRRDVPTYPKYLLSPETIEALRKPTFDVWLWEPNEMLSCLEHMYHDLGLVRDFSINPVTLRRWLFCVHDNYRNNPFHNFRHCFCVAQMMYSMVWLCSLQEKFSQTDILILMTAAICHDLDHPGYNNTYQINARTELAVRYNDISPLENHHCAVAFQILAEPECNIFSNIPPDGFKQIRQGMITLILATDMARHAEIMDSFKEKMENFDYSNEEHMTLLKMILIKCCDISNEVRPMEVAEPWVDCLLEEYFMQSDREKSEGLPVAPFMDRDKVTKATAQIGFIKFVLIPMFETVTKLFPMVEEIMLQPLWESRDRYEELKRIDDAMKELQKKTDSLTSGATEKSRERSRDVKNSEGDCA

Acetylcholinesterase [12] = target: T2, Acetylcholinesterase; assay: Inhibition of human whole red blood cells AChE using acetylthiocholine iodide as substrate incubated for 25 mins by Ellman's method
Cholinesterase [13] = target: T3, Cholinesterase; assay: Inhibition of human whole red blood cells BChE using butyrylthiocholine iodide as substrate incubated for 25 mins by Ellman's method
[14] = target: T1, Cholinesterases; ACHE & BCHE (Homo sapiens); assay: Selectivity index, ratio of IC50 for human whole red blood cells BChE to IC50 for human whole red blood cells AChE
Cholinesterase [15] = target: T3, Cholinesterase; assay: Inhibition of recombinant human serum BChE using butyrylthiocholine iodide as substrate preincubated for 20 mins followed by substrate addition measured for 45 to 90 mins by Ellman's method
[16] = target: Fatty-acid amide hydrolase 1 (Rattus norvegicus, UniProt P97612); assay: Displacement of [14C]-ethanolamine from FAAH derived from rat brain membrane fraction preincubated for 20 mins followed by susbstrate addition by scintillation counting method; type: cell membranes
Fatty-acid amide hydrolase 1, sequence (P97612 whole entry): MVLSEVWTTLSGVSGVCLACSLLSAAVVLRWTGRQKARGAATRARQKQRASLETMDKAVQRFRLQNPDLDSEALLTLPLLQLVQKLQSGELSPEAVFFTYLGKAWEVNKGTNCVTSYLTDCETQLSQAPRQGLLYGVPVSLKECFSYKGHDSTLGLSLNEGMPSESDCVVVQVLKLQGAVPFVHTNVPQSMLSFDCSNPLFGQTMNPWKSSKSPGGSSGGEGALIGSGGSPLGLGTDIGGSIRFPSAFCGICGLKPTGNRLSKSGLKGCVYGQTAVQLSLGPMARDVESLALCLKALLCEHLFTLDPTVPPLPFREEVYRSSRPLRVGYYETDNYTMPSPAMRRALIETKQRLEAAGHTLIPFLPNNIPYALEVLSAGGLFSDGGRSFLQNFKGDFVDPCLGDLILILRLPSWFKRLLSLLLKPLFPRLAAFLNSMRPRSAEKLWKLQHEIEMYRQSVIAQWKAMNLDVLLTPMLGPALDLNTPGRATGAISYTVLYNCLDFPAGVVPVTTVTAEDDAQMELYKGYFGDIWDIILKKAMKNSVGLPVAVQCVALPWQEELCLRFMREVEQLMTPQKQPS

[17] = target: T1, Cholinesterases; ACHE & BCHE (Homo sapiens); assay: Selectivity index, ratio of IC50 for recombinant human serum AChE to IC50 for recombinant human serum BChE; type: protein assay
Acetylcholinesterase [18] = target: T5, Acetylcholinesterase (Rattus norvegicus, UniProt P37136); assay: Inhibition of rat cortex AChE using acetylthiocholine iodide as substrate incubated for 15 mins by Ellman's method
T5 sequence (P37136 whole entry): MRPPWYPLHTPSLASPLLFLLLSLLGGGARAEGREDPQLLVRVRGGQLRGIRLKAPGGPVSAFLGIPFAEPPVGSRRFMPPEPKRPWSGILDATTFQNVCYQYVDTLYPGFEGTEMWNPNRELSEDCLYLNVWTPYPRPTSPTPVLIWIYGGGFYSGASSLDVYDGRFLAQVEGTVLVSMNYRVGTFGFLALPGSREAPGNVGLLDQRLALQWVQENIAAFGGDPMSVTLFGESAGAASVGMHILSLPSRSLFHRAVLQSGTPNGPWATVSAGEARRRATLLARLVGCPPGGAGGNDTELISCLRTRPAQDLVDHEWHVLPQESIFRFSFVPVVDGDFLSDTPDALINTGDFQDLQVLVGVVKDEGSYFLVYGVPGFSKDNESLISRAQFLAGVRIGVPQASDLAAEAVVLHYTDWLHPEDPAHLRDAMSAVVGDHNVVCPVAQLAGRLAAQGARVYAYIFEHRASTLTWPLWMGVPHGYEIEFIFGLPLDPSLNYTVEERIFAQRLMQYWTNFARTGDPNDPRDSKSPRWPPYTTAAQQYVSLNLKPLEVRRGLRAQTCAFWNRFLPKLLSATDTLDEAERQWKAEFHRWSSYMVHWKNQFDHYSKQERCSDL

Butyrylcholinesterase = Butyrylcholinesterase (Rattus norvegicus, UniProt Q9JKC1); assay: Inhibition of rat serum BChE using butyrylthiocholine iodide as substrate incubated for 15 mins by Ellman's method
Butyrylcholinesterase, sequence (Q9JKC1 whole entry): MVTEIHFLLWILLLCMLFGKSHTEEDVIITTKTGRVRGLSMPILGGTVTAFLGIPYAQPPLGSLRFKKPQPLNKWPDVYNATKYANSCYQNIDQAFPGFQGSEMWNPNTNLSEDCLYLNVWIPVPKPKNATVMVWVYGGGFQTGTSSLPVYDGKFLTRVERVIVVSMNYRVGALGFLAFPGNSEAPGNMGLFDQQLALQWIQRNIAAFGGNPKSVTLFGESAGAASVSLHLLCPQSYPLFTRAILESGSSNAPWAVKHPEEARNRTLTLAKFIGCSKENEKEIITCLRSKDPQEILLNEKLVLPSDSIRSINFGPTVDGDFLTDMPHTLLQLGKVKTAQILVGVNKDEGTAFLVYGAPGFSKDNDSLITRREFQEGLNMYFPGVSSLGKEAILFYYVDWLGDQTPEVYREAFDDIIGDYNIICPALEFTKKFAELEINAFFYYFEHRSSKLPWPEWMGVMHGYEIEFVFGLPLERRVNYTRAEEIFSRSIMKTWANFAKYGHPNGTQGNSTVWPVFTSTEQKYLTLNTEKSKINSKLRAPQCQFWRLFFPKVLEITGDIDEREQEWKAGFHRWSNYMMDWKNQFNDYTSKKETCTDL

[19] = target: Acetylcholinesterase and butyrylcholinesterase (AChE and BChE) (Rattus norvegicus) (UniProt P37136+Q9JKC1); assay: Selectivity index, ratio of IC50 for rat serum BChE to IC50 for rat cortex AChE
Acetylcholinesterase and butyrylcholinesterase (AChE and BChE) (Rattus norvegicus), sequence (Q9JKC1 1-597, one chain of several): as the sequence (Q9JKC1 whole entry) above

Acetylcholinesterase [20] = target: T5, Acetylcholinesterase; assay: Inhibition of rat AChE by Ellman's method
[21] = target: T6, Amine oxidase [flavin-containing] A (Homo sapiens, UniProt P21397); assay: Inhibition of MAO-A (unknown origin)
T6 sequence (P21397 whole entry): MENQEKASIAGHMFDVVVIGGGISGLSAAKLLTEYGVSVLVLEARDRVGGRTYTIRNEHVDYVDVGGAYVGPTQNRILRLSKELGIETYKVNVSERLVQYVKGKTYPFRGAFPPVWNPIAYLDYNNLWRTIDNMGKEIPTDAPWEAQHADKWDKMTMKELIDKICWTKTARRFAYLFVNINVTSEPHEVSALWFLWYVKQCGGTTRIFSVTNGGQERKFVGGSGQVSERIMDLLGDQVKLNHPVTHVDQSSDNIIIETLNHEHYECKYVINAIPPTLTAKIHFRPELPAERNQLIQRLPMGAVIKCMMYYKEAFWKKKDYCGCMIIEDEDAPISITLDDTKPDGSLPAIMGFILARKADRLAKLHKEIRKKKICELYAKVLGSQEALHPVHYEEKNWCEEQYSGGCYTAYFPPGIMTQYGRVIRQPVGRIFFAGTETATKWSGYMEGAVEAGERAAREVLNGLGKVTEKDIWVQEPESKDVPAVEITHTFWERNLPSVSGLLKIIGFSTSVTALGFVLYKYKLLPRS

[22] = target: T4, Amine oxidase [flavin-containing] B; assay: Inhibition of MAO-B (unknown origin)
Acetylcholinesterase [23] = target: T2, Acetylcholinesterase; assay: Inhibition of recombinant human AChE using acetylthiocholine as substrate at 100 uM preincubated for 5 mins followed by substrate addition measured for 1 min by Ellman's method relative to control; details: time 6.0 min
[24] = target: T6, Amine oxidase [flavin-containing] A; assay: Inhibition of recombinant human MAO-A expressed in BTI-TN-5B1-4 insect cells using p-tyramine as substrate at 100 uM preincubated for 15 mins followed by substrate addition measured after 20 mins by Amplex Red assay relative to control; details: BTI-TN-5B1-4, human, time 35 min
Acetylcholinesterase [25] = target: Acetylcholinesterase (Bos taurus, UniProt P23795)
Acetylcholinesterase (Bos taurus, UniProt P23795), sequence (P23795 whole entry): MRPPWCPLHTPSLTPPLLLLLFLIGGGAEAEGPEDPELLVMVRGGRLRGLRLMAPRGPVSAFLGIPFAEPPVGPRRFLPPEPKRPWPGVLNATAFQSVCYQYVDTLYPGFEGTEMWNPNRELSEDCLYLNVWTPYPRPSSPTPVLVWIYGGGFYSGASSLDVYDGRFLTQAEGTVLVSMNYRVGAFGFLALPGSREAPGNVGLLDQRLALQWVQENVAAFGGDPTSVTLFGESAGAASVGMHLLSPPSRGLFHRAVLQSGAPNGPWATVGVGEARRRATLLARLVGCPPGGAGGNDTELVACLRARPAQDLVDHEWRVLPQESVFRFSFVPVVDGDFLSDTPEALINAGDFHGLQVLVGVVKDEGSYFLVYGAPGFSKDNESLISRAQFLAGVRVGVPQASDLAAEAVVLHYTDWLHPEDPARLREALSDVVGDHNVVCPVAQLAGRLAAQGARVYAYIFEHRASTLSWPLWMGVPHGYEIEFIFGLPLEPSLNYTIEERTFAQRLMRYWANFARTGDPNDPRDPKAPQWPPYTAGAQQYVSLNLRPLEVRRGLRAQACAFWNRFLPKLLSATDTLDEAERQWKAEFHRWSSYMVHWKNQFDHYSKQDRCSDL
Description: Inhibition of bovine AChE

Acetylcholinesterase [26] = target: T2, Acetylcholinesterase; assay: Inhibition of human AChE using acetylthiocholine iodide as substrate preincubated for 10 mins followed by substrate addition by spectrophotometry

T1 sequence (P06276 whole entry, looked up): as the sequence (P06276 whole entry) above
T1 sequence (P22303 whole entry, looked up): as the sequence (P22303 whole entry) above

Q: For `CNC(=O)Oc1cccc(CN(C)CCCCCCCOc2ccc(-c3cc4ccccc4oc3=O)cc2)c1`, which Ratio IC50 [1] is on record?
A: 49

Q: And the IC50 (Acetylcholinesterase [2])?
A: 0.0012 µM

Q: What about the IC50 (Cholinesterase [3]) of the same compound?
A: 0.0594 µM

Q: How did the IC50 (Acetylcholinesterase [4]) turn out when `Cc1c(Cl)c(=O)oc2cc(OCCCCSC(=S)N3CCCCC3C)ccc12` (configuration not stated) was run?
A: 0.0068 µM

Q: And the IC50 [5]?
A: 0.876 µM

Q: How did the Ki (Acetylcholinesterase [6]) turn out when `CC(C)(C)OC(=O)Nc1ccc(O)c(C(=O)NCCCN2CCCCC2)c1` was run?
A: 0.12 µM

Q: What about the IC50 (Beta-secretase 1) of the same compound?
A: 0.0151 µM

Q: How did the Ratio IC50 [7] turn out when `CNC(=O)Oc1ccc2c(c1)[C@]1(C)CCO[C@@H]1N2C` was run?
A: 27

Q: What about the IC50 (Acetylcholinesterase [8]) of the same compound?
A: 0.004 µM

Q: What about the IC50 (Cholinesterase [9]) of the same compound?
A: 0.0067 µM

Q: For `CCN(C)C(=O)Oc1ccc(CNc2nc3c(cnn3C3CCCC3)c(=O)[nH]2)cc1OC`, which IC50 (Cholinesterase [10]) is on record?
A: 3.3 µM

Q: What about the IC50 [11] of the same compound?
A: 0.014 µM

Q: What does the source list for `COc1ccc(NC(=O)Oc2ccc3c(c2)[C@]2(O)CCN(C(C)=O)[C@@H]2N3)cc1`?
A: IC50 (Acetylcholinesterase [12]): > 100 µM; IC50 (Cholinesterase [13]): 2.31 µM; Ratio IC50 [14]: > 43

Q: What does the source list for `CN(CCCOc1ccc2ccc(=O)oc2c1)Cc1cccc(OC(=O)NC2CCCC2)c1`?
A: IC50 (Cholinesterase [15]): 0.00642 µM; IC50 [16]: 0.00253 µM; Ratio IC50 [17]: 61.9

Q: What does the source list for `CCNC(=O)Oc1ccc(-c2cc(=O)c3c(O)c(O)c(O)cc3o2)cc1`?
A: IC50 (Acetylcholinesterase [18]): 1.2 µM; IC50 (Butyrylcholinesterase): 22.1 µM; Ratio IC50 [19]: 18.4

Q: With `CC/N=C1\CCc2c1n(C)c1ccc(OC(=O)NC)c(Cl)c21` as the compound, how does the IC50 (Acetylcholinesterase [20]) read?
A: 0.16 µM

Q: What about the IC50 [21] of the same compound?
A: 0.1 µM

Q: What about the IC50 [22] of the same compound?
A: > 1000 µM

Q: With `CC(=O)N1CC[C@@]2(O)c3cc(OC(=O)Nc4ccccc4)ccc3N[C@@H]12` as the compound, how does the IC50 (Acetylcholinesterase [12]) read?
A: 0.25 µM

Q: And the IC50 (Cholinesterase [13])?
A: > 100 µM

Q: And the Ratio IC50 [14]?
A: > 400

Q: For `CC/N=C1\CCc2c1n(C)c1ccc(OC(=O)NC)c(Br)c21`, which IC50 (Acetylcholinesterase [20]) is on record?
A: 0.14 µM

Q: What about the IC50 [21] of the same compound?
A: 0.21 µM

Q: What about the IC50 [22] of the same compound?
A: > 1000 µM

Q: How did the inhibition (Acetylcholinesterase [23]) turn out when `C#CCN1CCC(CCc2cccc(OC(=O)Nc3ccccc3)c2)CC1` was run?
A: 51.9%

Q: And the inhibition at 100 µM [24]?
A: 54%

Q: Which IC50 (Cholinesterase [10]) does the source give for `CCN(C)C(=O)Oc1cccc2c1NCC2CCC(=O)OC` (configuration not stated) here?
A: 61.6 µM

Q: And the IC50 (Acetylcholinesterase [25])?
A: 0.008 µM

Q: What does the source list for `COc1cc(CNc2nc3c(cnn3C3CCCC3)c(=O)[nH]2)ccc1OC(=O)N(C)C`?
A: IC50 (Cholinesterase [10]): 0.97 µM; IC50 [11]: 0.017 µM

Q: With `CCOC(=O)C1=CN(C)c2cccc(OC(=O)N(C)C)c2C1` as the compound, how does the IC50 (Acetylcholinesterase [26]) read?
A: > 1000 µM
